Measured values from ChEMBL document CHEMBL6177995, “In Silico Discovery of Novel Potent Trace Amine-Associated Receptor TAAR1 Agonists as Promising Drug Candidates for the Treatment of Schizophrenia” (J Med Chem, 2025).

Assays:
[1] = molecular target: T1, Trace amine-associated receptor 1 (Homo sapiens, UniProt Q96RJ0); experiment: Agonist activity at TAAR1 (unknown origin) transfected in HEK293 cells co-transfected with GalphaS-Nluc, Gbeta1/3 and Ggamma1/2/9-mVenus assessed as GalphaS-Gbeta/gamma dissociation by BRET assay; assay type: functional, cell-based
T1 sequence (Q96RJ0 whole entry): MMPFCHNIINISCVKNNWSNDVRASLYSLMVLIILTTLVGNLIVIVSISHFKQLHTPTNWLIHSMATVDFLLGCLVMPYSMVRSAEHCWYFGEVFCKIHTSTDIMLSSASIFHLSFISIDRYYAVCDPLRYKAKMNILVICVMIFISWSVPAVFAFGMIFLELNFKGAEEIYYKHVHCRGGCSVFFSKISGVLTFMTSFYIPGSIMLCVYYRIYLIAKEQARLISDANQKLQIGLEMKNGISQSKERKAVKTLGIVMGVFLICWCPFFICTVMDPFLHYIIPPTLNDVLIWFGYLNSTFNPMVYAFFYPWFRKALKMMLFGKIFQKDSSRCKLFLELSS

[2] = molecular target: T1, Trace amine-associated receptor 1; experiment: Agonist activity at TAAR1 (unknown origin) transfected in HEK293 cells co-transfected with Galphaq-Nluc, Gbeta1/3 and Ggamma1/2/9-mVenus assessed as Galphaq-Gbeta/gamma dissociation by BRET assay; assay type: functional, cell-based
[3] = Toxicity in male C57BL/6J mouse assessed as catalepsy by measuring extrapyramidal symptoms at 3 mg/kg, ip measured after 30 to 60 mins by bar test; assay type: organism-based; conditions: in vivo, time 30-60 min

Compound | EC50 [1] | EC50 [2] | Activity [3]
O=S(=O)(NC[C@@H]1CCCN1)c1ccc2c(c1)CCC2 | > 10 µM | > 10 µM | 
COc1ccccc1S(=O)(=O)NC[C@@H]1CCCN1 |  | 0.0078 µM | 
O=S(=O)(NC[C@@H]1CCCN1)c1c(Cl)cccc1Cl | > 10 µM | > 10 µM | 
O=c1[nH]c2ccc(S(=O)(=O)NC[C@@H]3CCCN3)cc2[nH]c1=O |  | 0.0055 µM | 
O=C(CCCN1CCC(O)(c2ccc(Cl)cc2)CC1)c1ccc(F)cc1 [HALOPERIDOL] |  |  | Toxic
N#Cc1cccc(S(=O)(=O)NC[C@@H]2CCCN2)c1 | > 10 µM | > 10 µM | 

More lines, main results first:

EC50 [1] | EC50 [2] | Compound | Activity [3]
> 10 µM | > 10 µM | O=S(=O)(NC[C@@H]1CCCN1)c1cccc(Cl)c1 | 
> 10 µM | > 10 µM | O=S(=O)(NC[C@@H]1CCCN1)c1ccccc1C(F)(F)F | 
 | 0.0632 µM | O=S(=O)(NC[C@@H]1CCCN1)c1ccccc1Cl | 
> 10 µM | > 10 µM | O=S(=O)(NC[C@@H]1CCCN1)c1ccc(Cl)s1 | 
